Results on 15 compounds are retold here after patent US9657057B2, “Dipeptide and tripeptide epoxy ketone protease inhibitors” (Onyx Therapeutics, Inc., priority 2013, dated 2017).

Converted amounts (≈) assume the structure as drawn.

The target of one series is T1, β5 (Homo sapiens, UniProt P20618+P28074).
T1 construct: endogenous in cells; host or cells: MOLT-4
The series can be described thus: ProCISE proteasome subunit assay, β5. Format: biochemical. Particulars: MOLT4 lysate Hu 1 h. The procedure:
(§1) This assay was used to assess the inhibitory activity against each of LMP2, LMP7, MECL1, β1, β2, and β5. Briefly, test compounds were serially diluted in DMSO at 100× concentration, then diluted to 10× in aqueous hypotonic lysis buffer. Lysate from the human acute lymphoblastic leukemia cell line, MOLT-4, was treated for 1 hour at 25° C. with compound at a final 1× concentration. […] Following this, lysate was denatured in guanidine hydrochloride, and subunits bound to probe were isolated with streptavidin-conjugated sepharose beads. Individual subunits were probed with subunit-specific primary antibodies, followed by HRP-conjugated secondary antibodies. A chemiluminescent substrate was used to generate signal associated with HRP binding, which was detected on a plate reader. Luminescent signal was normalized to protein content, then, percent activity calculated relative to DMSO-treated controls to generate IC50 curves.

The target in series [1] is i20S (20S immunoproteasome) (Homo sapiens, UniProt P20618+P28062). The experiment in a line: 20S proteasome assay, chymotrypsin-like activity (LLVY), i20S. Format: biochemical. Particulars: LLVY i20S Hu 1 h CONT: IC50 (nM), succinyl-Leu-Leu-Val-Tyr-AMC. From the text:
(§2) Assay buffer consisted of TE buffer [20 mmol/L Tris (pH 8.0), 0.5 mmol/L EDTA] with (20S) or without (cell lysate) 0.03% SDS. Reactions were initiated by enzyme or lysate addition and monitored for AMC product formation at 27jC with a plate-based spectofluorometer (Tecan).

The next series has as its target T2, LMP7 (Homo sapiens, UniProt P20618+P28062).
T2 construct: endogenous in cells; host or cells: MOLT-4
The series can be described thus: ProCISE proteasome subunit assay, LMP7. Format: biochemical. Particulars: MOLT4 lysate Hu 1 h. Here is the method:
as §1

The target of series [2] is c20S (constitutive 20S proteasome) (Homo sapiens, UniProt P20618+P28074). The series can be described thus: 20S proteasome assay, chymotrypsin-like activity (LLVY), c20S. Format: biochemical. Particulars: LLVY c20S Hu 1 h CONT: IC50 (nM), succinyl-Leu-Leu-Val-Tyr-AMC.
From the text: as §2

Another series is described as follows: Solubility pH 7. Format: physicochemical. Conditions: pH 7, aqueous buffer.

By IC50 is commonly meant the concentration that inhibits the measured activity by half. Read a low IC50 as inhibition by little substance. On to `COc1ccc(C[C@H](NC(=O)[C@H](C)NC(=O)C(C)(F)F)C(=O)N[C@@H](Cc2ccccc2)C(=O)[C@@]2(C)CO2)cc1` [Compound C-2006], for which the IC50 at β5 is 0.18 µM; in series [1] it was 6.1 nM; at LMP7 it was 0.0344 µM; in series [2], 29 nM.
A word on the solubility: it is how much of the substance goes into solution per volume. `COc1ccc(C[C@H](NC(=O)[C@H](CO)NC(C)=O)C(=O)N[C@@H](Cc2ccccc2)C(=O)[C@@]2(C)CO2)cc1` [Compound C-2007, (S)-2-acetamido-3-hydroxy-N—((S)-3-(4-methoxyphenyl)-1-(((S)-1-((R)-2-methyloxiran-2-yl)-1-oxo-3-phenylpropan-2-yl)amino)-1-oxopropan-2-yl)propanamide]: the IC50 worked out at 0.478 µM against β5, 118 nM in series [1], 0.211 µM on LMP7 and 432 nM in series [2]. This compound came in with a solubility in “Solubility pH 7” of 728 µg/mL (≈ 1420 µM).
As to `COc1ccc(C[C@H](NC(=O)[C@H](C)NC(=O)C(F)(F)F)C(=O)N[C@@H](Cc2ccccc2)C(=O)[C@@]2(C)CO2)cc1` [Compound C-2011, (S)-3-(4-Methoxyphenyl)-N—((S)-1-((R)-2-methyloxiran-2-yl)-1-oxo-3-phenylpropan-2-yl)-2-((S)-2-(2,2,2-trifluoroacetamido)propanamido)propanamide], the IC50 is 0.342 µM against β5, 13.5 nM in series [1], 0.0971 µM on LMP7 and 68.6 nM in series [2].
Consider `COCOCCC(=O)N[C@@H](C)C(=O)N[C@@H](Cc1ccc(OC)cc1)C(=O)N[C@@H](Cc1ccccc1)C(=O)[C@@]1(C)CO1` [Compound C-2013, (S)-2-((S)-2-(3-(methoxymethoxy)propanamido)propanamido)-3-(4-methoxyphenyl)-N—((S)-1-((R)-2-methyloxiran-2-yl)-1-oxo-3-phenylpropan-2-yl)propanamide], for which the half-maximal inhibitory concentration (IC50) at β5 was found to be 0.359 µM; in series [1], 40.2 nM; against LMP7 it was 0.0667 µM; in series [2], 117 nM. The same compound gave a solubility in “Solubility pH 7” of 725 µg/mL (≈ 1270 µM).
On to `COc1ccc(C[C@H](NC(=O)[C@H](C)NC(=O)Cc2cc(C)no2)C(=O)N[C@@H](CC2CCCC2)C(=O)[C@@]2(C)CO2)cc1` [Compound C-2014, (S)—N—((S)-3-cyclopentyl-1-((R)-2-methyloxiran-2-yl)-1-oxopropan-2-yl)-3-(4-methoxyphenyl)-2-((S)-2-(2-(3-methylisoxazol-5-yl)acetamido)propanamido)propanamide], for which the IC50 against β5 came out at 0.372 µM; in series [1], 16.6 nM; on LMP7, 0.0564 µM; in series [2], 45.7 nM.
Regarding `COc1ccc(C[C@H](NC(=O)[C@@H](C)NC(=O)Cc2cc(C)no2)C(=O)N[C@@H](CC2CCCC2)C(=O)[C@@]2(C)CO2)cc1` [Compound C-2015, (S)—N—((S)-3-cyclopentyl-1-((R)-2-methyloxiran-2-yl)-1-oxopropan-2-yl)-3-(4-methoxyphenyl)-2-((R)-2-(2-(3-methylisoxazol-5-yl)acetamido)propanamido)propanamide], the half-maximal inhibitory concentration (IC50) against β5 came out at 30.4 µM; in series [1] it was 2920 nM; at LMP7, 3.06 µM; in series [2], 18600 nM. In the series “Solubility pH 7”, this compound displayed a solubility of 169 µg/mL (≈ 298 µM).
`COCCC(=O)N[C@H](C)C(=O)N[C@@H](Cc1ccc(OC)cc1)C(=O)N[C@@H](CC1CCCC1)C(=O)[C@@]1(C)CO1` [Compound C-2018, (S)—N—((S)-3-cyclopentyl-1-((R)-2-methyloxiran-2-yl)-1-oxopropan-2-yl)-3-(4-methoxyphenyl)-2-((R)-2-(3-methoxypropanamido)propanamido)propanamide]: the IC50 on β5 is 34.9 µM; in series [1], 570 nM; against LMP7, 1.18 µM; in series [2], 12800 nM. In addition, the concentration in solution in “Solubility pH 7” (solubility) came to 129 µg/mL (≈ 243 µM).
With `CCOCC(=O)N[C@H](C)C(=O)N[C@@H](Cc1ccc(OC)cc1)C(=O)N[C@@H](CC1CCCC1)C(=O)[C@@]1(C)CO1` [Compound C-2021, (S)—N—((S)-3-cyclopentyl-1-((R)-2-methyloxiran-2-yl)-1-oxopropan-2-yl)-2-((R)-2-(2-ethoxyacetamido)propanamido)-3-(4-methoxyphenyl)propanamide], the IC50 at β5 worked out at 30.8 µM; in series [1] it was 1220 nM; against LMP7, 1.89 µM; in series [2] it was 99000 nM. In the series “Solubility pH 7”, this compound yielded a solubility of 103 µg/mL (≈ 193 µM).
Take `COc1ccc(C[C@H](NC(=O)[C@H](C)NC(=O)c2cc(C)no2)C(=O)N[C@@H](CC2CCCC2)C(=O)[C@@]2(C)CO2)cc1` [Compound C-2022, N—((S)-1-(((S)-1-(((S)-3-cyclopentyl-1-((R)-2-methyloxiran-2-yl)-1-oxopropan-2-yl)amino)-3-(4-methoxyphenyl)-1-oxopropan-2-yl)amino)-1-oxopropan-2-yl)-3-methylisoxazole-5-carboxamide]: the half-inhibitory concentration (IC50) against β5 worked out at 0.429 µM; in series [1] it was 23.5 nM; on LMP7 it was 0.195 µM; in series [2] it was 65.3 nM. Also, the solubility in the series “Solubility pH 7” was 84.7 µg/mL (≈ 153 µM).
Take `COc1ccc(C[C@H](NC(=O)[C@@H](C)NC(=O)c2cc(C)no2)C(=O)N[C@@H](CC2CCCC2)C(=O)[C@@]2(C)CO2)cc1` [Compound C-2023, N—((R)-1-(((S)-1-(((S)-3-cyclopentyl-1-((R)-2-methyloxiran-2-yl)-1-oxopropan-2-yl)amino)-3-(4-methoxyphenyl)-1-oxopropan-2-yl)amino)-1-oxopropan-2-yl)-3-methylisoxazole-5-carboxamide]: the IC50 against β5 stood at 2.69 µM; in series [1] it was 55.3 nM; against LMP7, 0.318 µM; in series [2], 857 nM. The same compound registered a solubility in the series “Solubility pH 7” of 100 µg/mL (≈ 181 µM).
As for `COc1ccc(C[C@H](NC(=O)[C@@H](C)NC(=O)c2cnc(C)s2)C(=O)N[C@@H](CC2CCCC2)C(=O)[C@@]2(C)CO2)cc1` [Compound C-2026, N—((R)-1-(((S)-1-(((S)-3-cyclopentyl-1-((R)-2-methyloxiran-2-yl)-1-oxopropan-2-yl)amino)-3-(4-methoxyphenyl)-1-oxopropan-2-yl)amino)-1-oxopropan-2-yl)-2-methylthiazole-5-carboxamide], the concentration for half-maximal inhibition (IC50) turned out to be 3.45 µM against β5, 64.6 nM in series [1], 0.17 µM against LMP7 and 1360 nM in series [2]. Besides, in “Solubility pH 7”, the concentration in solution (solubility) came to 126 µg/mL (≈ 221 µM).
In the case of `COc1ccc(C[C@H](NC(=O)[C@H](C)NC(=O)CC(C)(C)O)C(=O)N[C@@H](CC2CCCC2)C(=O)[C@@]2(C)CO2)cc1` [Compound C-2027, N—((S)-1-(((S)-1-(((S)-3-cyclopentyl-1-((R)-2-methyloxiran-2-yl)-1-oxopropan-2-yl)amino)-3-(4-methoxyphenyl)-1-oxopropan-2-yl)amino)-1-oxopropan-2-yl)-3-hydroxy-3-methylbutanamide], the IC50 was 3.6 µM against β5, 470 nM in series [1], 0.618 µM against LMP7 and 2130 nM in series [2]. The concentration in solution in the series “Solubility pH 7” (solubility) was 753 µg/mL (≈ 1380 µM).
The matching figures for `COc1ccc(C[C@H](NC(=O)[C@@H](C)NC(=O)CC(C)(C)O)C(=O)N[C@@H](CC2CCCC2)C(=O)[C@@]2(C)CO2)cc1` [Compound C-2028, N—((R)-1-(((S)-1-(((S)-3-cyclopentyl-1-((R)-2-methyloxiran-2-yl)-1-oxopropan-2-yl)amino)-3-(4-methoxyphenyl)-1-oxopropan-2-yl)amino)-1-oxopropan-2-yl)-3-hydroxy-3-methylbutanamide]: 1.16 µM, 11.9 nM, 0.0757 µM, 323 nM and 776 µg/mL (≈ 1420 µM).
For `COc1ccc(C[C@H](NC(=O)[C@@H](CO)NC(=O)c2cc(C)no2)C(=O)N[C@@H](CC2CCCC2)C(=O)[C@@]2(C)CO2)cc1` [Compound C-2030, N—((R)-1-(((S)-1-(((S)-3-cyclopentyl-1-((R)-2-methyloxiran-2-yl)-1-oxopropan-2-yl)amino)-3-(4-methoxyphenyl)-1-oxopropan-2-yl)amino)-3-hydroxy-1-oxopropan-2-yl)-3-methylisoxazole-5-carboxamide] the same measures were 2.13 µM, 71.7 nM, 0.315 µM, 785 nM and 286 µg/mL (≈ 502 µM).
As to `COc1ccc(C[C@H](NC(=O)[C@]2(C)CCC(=O)N2)C(=O)N[C@@H](Cc2ccccc2)C(=O)[C@@]2(C)CO2)cc1` [Compound C-3011, (S)—N—((S)-3-(4-methoxyphenyl)-1-(((S)-1-((R)-2-methyloxiran-2-yl)-1-oxo-3-phenylpropan-2-yl)amino)-1-oxopropan-2-yl)-2-methyl-5-oxopyrrolidine-2-carboxamide], the half-maximal inhibitory concentration (IC50) in series [1] amounted to 4550 nM; in series [2], 3320 nM. The solubility in “Solubility pH 7” turned out to be 1230 µg/mL (≈ 2420 µM).
